Entries after “also recorded” stand apart in the source; their conditions may differ.
What was measured:
[1] = system: 5-methylcytosine content of gDNA of T1D iPS cells; experiment: Dot blot for 5-methylcytosine on gDNA; assay type: cell-based, human
Description: FIGS. 14A-14B. Selection of the optimal dose of 5-aza-DC to demethylate iPS cells while ensuring maximal cell viability. FIG. 14A) Every cell type has a unique tolerance to 5-aza-DC, which is toxic at high doses. In order to identify an optimal dose of 5-aza-DC that would maintain integrity of the cells while demethylating effectively, a dose screen experiment was conducted on T1D iPS cells (n=2), observing the quality of the colonies and degree of cell death over 4 days after 18 hours of treatment with various doses of 5-aza-DC. […] FIG. 14B) To confirm that those low doses would still demethylate cells, a dot blot for 5-methylcytosine was performed on gDNA isolated from untreated T1D iPS cells or iPS cells that were treated with 1 nM or 10 nM 5-aza-DC (n=3).
To detect the effectiveness of demethylation treatment, dot blots were performed on genomic DNA (gDNA) samples isolated from demethylated and nondemethylated control iPS cells to determine levels of 5-methylcytosine (5-MC). gDNA was isolated using the DNeasy Blood & Tissue Kit (Qiagen, Valencia, Calif.). […] Finally, HRP signal was detected with a 5 minute incubation at room temperature in Amersham ECL Prime solution (Catalog Number: RPN2232, GE Healthcare, Pittsburgh, Pa.) and processed via X-ray films.

[2] = system: T1D iPS cells differentiating into DE cells; experiment: Definitive endoderm marker flow cytometry after demethylation (CXCR4, Sox17, PDGFR-α); assay type: cell-based, human
Text: FIG. 15. Demethylation on DO of differentiation arrests cells in a CXCR4+ PDGFRα+ Sox17− mesendodermal state. In order to identify the optimal time point at which demethylation should be initiated, two parallel differentiations of T1D iPS cells into DE cells were established. In one differentiation, the culture was exposed to 5-aza-DC on day 0 (which is the day that DE differentiation is initiated), whereas the other culture was demethylated at day 4 of differentiation (which is the last day of DE culture). At the end of the differentiations, the efficacy of DE cell differentiation was determined by studying the expression of CXCR4, PDGFR-α, and Sox17. Undifferentiated iPS cells (red plot) served as a negative control for all of these cell markers. […] In contrast, demethylation of the cells on day 4 (blue plot) generated >90% CXCR4+ Sox17+ PDGFR-α− cells, representing true DE cells. […] Besides, after formation of the DE, the cells have a higher proliferative rate. Thus, temporal control of the demethylation treatment ensures enhanced differentiation outcomes.
(§1) After completing 4 days of differentiation in DE differentiation media, the cells were treated with fresh media supplemented with 5-aza-DC. The 5-aza-DC was treated for 18 hours, which spanned the last day of DE differentiation, before being washed with warm DMEM F/12 three times and harvested as described in the next section for initiating 3D differentiation into pancreatic precursor cells.
For assessment of DE differentiation efficiency, cells from D5 of differentiation (end of stage 1) were incubated at room temperature for 2-5 minutes with TrypLE Express (Invitrogen, Grand Island, N.Y.), dissociated into a single cell suspension, filtered through a 70 μm mesh and washed with 1×PBS (Invitrogen, Grand Island, N.Y.) before being distributed into FACS tubes. […]

[3] = system: T1D DE cells (T1D iPS cell-derived); experiment: Pdx1 flow cytometry at end of Stage 4, T1D cultures; assay type: cell-based, human; conditions: T1D DE cells demethylated on day 4 for 18 h
Description: as §1
(§2) For assessment of expression of pancreatic transcription factors (Pdx1, Nkx6.1 and NeuroD1), matrigel-seeded differentiating cell clusters on differentiation D15 (end of stage 4) were recovered by treatment with Dispase (Catalog Number: 354235, BD Biosciences, San Jose, Calif.) for 5 minutes at 37° C., followed by gentle suspension to further break down the matrigel. After washing with 1×PBS and centrifugation, the cell clusters were incubated with TrypLE Express for 5-10 minutes at room temperature. Following gentle resuspension and centrifugation, the cells were permeabilized using methanol as described below. The cells were fixed in 2% paraformaldehyde in PBS for 10 minutes at 37° C., followed by centrifugation, and resuspension of the vortexed cells in 1 mL of chilled Perm Buffer III (Catalog Number: 558050, BD Biosciences, San Jose, Calif.). The cells were incubated for 30 minutes on ice in sealed tubes. […]

ND iPS cells [4] = experiment: Pdx1 flow cytometry, ND cultures; assay type: cell-based, human; conditions: 10 nM for 18 h on day 4
Description: (§3) FIGS. 18A-18B. […] To address whether demethylation enhances the yield of Pdx1+ cells and insulin+ cells from ND iPS cells, in parallel, differentiations of ND iPS cells, treated with or without 10 nM 5-aza-DC for 18 h on day 4 of differentiation (n=2) were established. Controls for staining were iPS cells (negative) and βTC3 mouse insulinoma cells (positive). […] Thus, demethylation enhances the differentiation into IPCs of specifically T1D iPS cells but not ND iPS cells. This is likely because there are specific gene loci on T1D cells that are aberrantly methylated, which is corrected by transient 5-aza-DC treatment.
as §2, with “below.” for “below. The cells were fixed in 2% paraformaldehyde in PBS for 10 minutes at 37° C., followed by centrifugation, and resuspension of the vortexed cells in 1 mL of chilled Perm Buffer III (Catalog Number: 558050, BD Biosciences, San Jose, Calif.). The cells were incubated for 30 minutes on ice in sealed tubes.”

[5] = system: T1D DE cells (T1D iPS cell-derived); experiment: Insulin and glucagon flow cytometry at end of Stage 5, T1D cultures; assay type: cell-based, human; conditions: for number of glucagon-expressing cells: T1D cultures, concentration-dependent
Description: as §1
For assessment of expression of pancreatic hormones insulin and glucagon, matrigel-seeded differentiating cell clusters on differentiation D27 (end of stage 5) were recovered by treatment with Dispase (Catalog Number: 354235, BD Biosciences, San Jose, Calif.) for 5 minutes at 37° C., followed by gentle suspension to further break down the matrigel. After washing with 1×PBS and centrifugation, the cell clusters were incubated with TrypLE Express for 5-10 minutes at room temperature. Following gentle resuspension and centrifugation, the cells were permeabilized via saponin using the BD Cytofix/Cytoperm Kit (Catalog Number: 554714, BD Biosciences, San Jose, Calif.). For insulin staining, the cells were incubated with anti-inulin-PE for 30 minutes in the dark at room temperature before being washed and resuspended in 1×PBS for flow cytometric analysis. For glucagon staining, the cells were incubated with purified rabbit anti-human glucagon for 30 minutes in the dark at room temperature before being washed and incubated with anti-rabbit APC (1:100) for an additional 30 minutes in the dark at room temperature. Subsequently, the cells were washed and resuspended in 1×PBS for flow cytometric analysis.

ND iPS cells [6] = experiment: Insulin flow cytometry at end of Stage 5, ND cultures; assay type: cell-based, human
Description: as §3
For assessment of expression of pancreatic hormones insulin and glucagon, matrigel-seeded differentiating cell clusters on differentiation D27 (end of stage 5) were recovered by treatment with Dispase (Catalog Number: 354235, BD Biosciences, San Jose, Calif.) for 5 minutes at 37° C., followed by gentle suspension to further break down the matrigel. After washing with 1×PBS and centrifugation, the cell clusters were incubated with TrypLE Express for 5-10 minutes at room temperature. Following gentle resuspension and centrifugation, the cells were permeabilized via saponin using the BD Cytofix/Cytoperm Kit (Catalog Number: 554714, BD Biosciences, San Jose, Calif.). […]

[7] = system: T1D iPS cell-derived cell clusters; experiment: Cluster morphology and dithizone staining of T1D IPC cultures; assay type: cell-based, human
Description: Freshly prepared dithizone solution was used for all experiments. First, 20 mg of dithizone (Catalog Number: D5130, Sigma-Aldrich, St. Louis, Mo.) was added to 0.6 mL of 95% ethanol in a 15 mL conical tube. Subsequently, 1-5 drops of ammonium hydroxide was added and the resulting orange stock mixture was vortexed thoroughly until completely dissolved. 0.3 mL of this stock solution was dispensed in 99.7 mL of 1×PBS and the pH was adjusted to 7.4 with 1N HCl. Islets (supplied by the IIDP) or picked IPC clusters were added to separate wells each containing 200 μL of the final dithizone solution in a 96 well plate. The cell clusters were incubated for 2-5 minutes before images were captured using a standard light microscope (Nikon Eclipse, TS100) attached to a color camera.
A full differentiation of T1D iPS cells into IPCs was initiated, demethylating the DE cells on day 4 for 18 hours before transferring them onto matrigel. A striking impact of the demethylation treatment in the T1D cultures was observed. Typically, T1D iPS cells gave rise to a disorganized mix of cysts and spheroids, with a dominant presence of hollow cysts. […] Next, these cell clusters were stained with dithizone, which when positive points to the presence of insulin Shiroi et al., 2002).

[8] = system: Human iPS cell-derived IPCs; experiment: Mitochondria stress test (oxygen consumption rate); assay type: cell-based; conditions: low glucose (2.8 mM)
Description: Oxygen consumption rate (OCR) was measured by using an intact-cell respirometer designed for adherent cells (Seahorse Bioscience, North Billerica, Mass.). Human iPS cell-derived IPCs were grown in special 24-well plates designed for respirometer analyses. OCR was determined in assay medium consisting of medium M199 lacking sodium bicarbonate for 60 minutes. Before analysis, IPCs within individual wells were exposed to either, low glucose (2.8 mM), high glucose (20 mM), high glucose (20 mM)+Nifedipine. […] The FCCP concentration used in these studies was determined by titration with differing amounts of the uncoupler by using the least amount required for maximal uncoupling in cells unexposed to MTQAs. OCR (pmol per minute per microgram of DNA) was determined as the average number recorded during time periods defined as intervals between the above sequential injections. Basal OCR was determined as respiration before injection of any compounds minus non-mitochondrial OCR. OCRATP was determined as basal OCR minus OCR after oligomycin injection. OCR accountable by the proton leak was calculated as OCR in the presence of oligomycin minus non-mitochondrial OCR. Maximal uncoupled respiration was calculated as OCR after FCCP minus non-mitochondrial OCR. […] ECAR was quantified simply as the recorded acidification rate during the respiratory conditions delineated above.

[9] = demethylation on day 4 of differentiation

Compound | demethylation (5-methylcytosine dot blot) ([1]; 1 nM) | demethylation (5-methylcytosine dot blot) ([1]; 10 nM) | marker phenotype of resulting cells ([2]; demethylation on day 0 of differentiation) | CXCR4+ Sox17+ PDGFR-α− cells [2, 9] [%] | marker phenotype of resulting cells [2, 9] | Pdx1+ cells at the end of Stage 4 [3] [%] | yield of Pdx1+ cells, treated versus untreated (ND iPS cells [4]) | insulin-expressing cells ([5]; T1D cultures treated with 5-Aza-DC, n=5) | number of glucagon-expressing cells [5] | number of glucagon-expressing cells ([5]; listed as 5-Aza-DC) | insulin+ cells, highest measured in some cultures ([5]; T1D, 10 nM, repeated experiments) [%] | cells expressing insulin ([5]; T1D, dose of 10 nM) [%] | augmentation of yield of IPCs versus untreated ([5]; T1D-1 DE cells, pooled experiments, untreated n=3, demethylated n=5) [fold] | yield of insulin-expressing cells, treated versus untreated (ND iPS cells [6]; 10 nM for 18 h on day 4) | yield of Insulin+ cells at the end of Stage 5 (ND iPS cells [6]; unchanged after treatment) [%] | cluster morphology ([7]; T1D DE cells treated on day 4, both doses (1 nM, 10 nM)) | dithizone staining of clusters ([7]; T1D cultures treated with 5-aza-DC) | effect on oxygen consumption [8]
Nc1ncn([C@H]2C[C@H](O)[C@@H](CO)O2)c(=O)n1 [5-aza-DC, 5-aza-2′-deoxycytidine] | effectively demethylate | effectively demethylate | arrested in the immature CXCR4^+ PDGFRα^+ Sox17^− mesendodermal state; also recorded: CXCR4+ PDGFR-α+ Sox17− | > 90 | pure population of CXCR4^+ Sox17^+ PDGFRα^− DE cells | > 95 | not significantly different | 56.7-59.4% | nearly all the glucagon secreting cells are gone | drastic decline | ≤ 65 | 56 | ~4 | equivalent yield | 25 | promoted the formation of compact cell clusters that uniquely resembled human islets; also recorded: promotes the formation of compact clusters | strong red color | –
CC(C)Cn1c(=O)n(C)c(=O)c2[nH]cnc21 [IBMX, 3-isobutyl-1-methylxanthine] | – | – | – | – | – | – | – | – | – | – | – | – | – | – | – | – | – | could not be increased; also recorded: could not be elevated

Source: US20170240864A1, “METHODS TO GENERATE PANCREATIC BETA CELLS FROM SKIN CELLS” (UNIVERSITY OF IOWA RESEARCH FOUNDATION, priority 2016, published 2017)
